Data: US12031977B2, “Ex vivo system for determining multiple drug-drug transporter interactions and methods of use thereof” (Massachusetts Institute of Technology, priority 2019, dated 2024)
Counter-ions that a name gives are not always drawn. Like-named read-outs stand apart in the source and are kept apart here. d = 2'-deoxy (DNA); r = 2'-OH (RNA)

Experiments:
P-gp, BCRP, and MRP2 [1] = test: mock screening of model drugs: ex vivo perfusion through porcine small intestine tissue after siRNA knockdown; settings: transporter(s) found by siRNA knockdown perfusion screen
Source text: (§4) Pig tissue was freshly sourced from local slaughter houses (i.e., Leman & Sons, Hilltown Pork, and Blood Farm). Small intestinal tissue was isolated from intact gastrointestinal tract immediately after euthanasia, and dissected longitudinally. A series of washes with PBS supplemented with 5% Antibiotic-Antimycotic solution (Thermo Fisher Scientific) was applied to the tissue until clean under sterile conditions. Then, the tissue was mounted on a device filled with PBS (5% Antibiotic-Antimycotic) solution and cultured at 37° C. incubation with 5% CO2 supplement.
(§5) siRNA duplex solution was diluted into PBS solution to a final concentration of 1 μM. […] Tissue was cultured for 24 hours before the perfusion assay.
(§6) The device consists of a bottom reservoir plate and an upper load plate. Both plates were made by laser cutting (Universal Laser Systems VLS6.60) a standard 48-well plate outline and well pattern (Corning 48 well plate, transparent) as well as magnet holes onto an acrylic sheet (McMaster-Carr 1/4″ thickness). Neodymium magnets (K&J Magnetics Cylinder, 3/16″× 3/16″, N52, NI) were press fitted into the magnet holes of both plates. Seal film (Thermo) was applied to seal the bottoms of the wells of the reservoir plate, and PBS solution was loaded into each well. Then, tissue was placed on top of the reservoir plate and the upper load plate was laid on top of the tissue. The magnets were oriented to align and attract the two plates together, ensuring a strong seal between the wells.
(§7) For ex vivo perfusion study, the detection of each drug is based on either fluorescent or absorbance measurements according to the literature. A 1 mg/mL drug stock was prepared for each drug in PBS (pH 7.4). For water-insoluble drugs, a final concentration of DMSO in PBS was used to solubilize drugs.

Pgp, BCRP, MRP2 = settings: cited from earlier work
P-gp, BCRP, and MRP2 [2] = tested on: P-gp, BCRP, and MRP2
Source text: as §4, §5, §6, §7

BCRP [3] = target: T1, BCRP (Sus scrofa, UniProt Q8MIB3); test: ex vivo perfusion versus gradually reduced BCRP expression; type: in vitro ADME, porcine
T1 construct: Small intestinal tissue was isolated from intact gastrointestinal tract immediately after euthanasia; from tissue; host or cells: porcine small intestine explant, BCRP level lowered by graded siRNA doses
T1 sequence (Q8MIB3 1-656): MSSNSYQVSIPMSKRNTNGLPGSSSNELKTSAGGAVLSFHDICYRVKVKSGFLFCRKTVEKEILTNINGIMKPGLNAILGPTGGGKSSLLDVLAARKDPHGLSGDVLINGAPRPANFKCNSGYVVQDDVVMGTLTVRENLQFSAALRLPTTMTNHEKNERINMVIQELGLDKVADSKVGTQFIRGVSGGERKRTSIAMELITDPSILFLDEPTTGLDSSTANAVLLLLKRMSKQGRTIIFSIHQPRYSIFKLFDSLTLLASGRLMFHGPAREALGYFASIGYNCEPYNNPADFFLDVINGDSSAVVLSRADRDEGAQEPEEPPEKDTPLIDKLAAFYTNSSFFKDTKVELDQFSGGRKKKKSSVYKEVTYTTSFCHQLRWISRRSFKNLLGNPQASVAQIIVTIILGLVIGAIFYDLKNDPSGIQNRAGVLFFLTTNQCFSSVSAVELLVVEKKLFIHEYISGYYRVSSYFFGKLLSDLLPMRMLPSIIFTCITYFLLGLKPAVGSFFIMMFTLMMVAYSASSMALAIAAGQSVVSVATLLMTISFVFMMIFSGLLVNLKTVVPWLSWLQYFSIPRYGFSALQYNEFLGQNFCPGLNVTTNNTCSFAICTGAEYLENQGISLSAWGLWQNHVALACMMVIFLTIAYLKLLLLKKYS
Source text: (§1) Next perfusion of drugs that are known to be substrates for multiple transporters was studied. […] To be able to delineate such effects, it was aimed to down regulate multiple transporters simultaneously. Two siRNAs targeting P-gp and BCRP were co-delivered with varying concentrations of each siRNA and noted that expression levels could be fine-tuned in a dose-dependent, linear fashion (Pearson r=0.79 and 0.96, FIG. 5C). Next, how the simultaneous and gradual down regulation of transporter expression impacts drug perfusion was studied. Perfusion of BCRP-specific substrates increased linearly with reduced BCRP-expression (dauricine R=0.7, hymecromone sulfate R=0.81) but were not affected by altering P-gp expression (p>0.28 one-tailed Z test at maximum siPgp concentration; FIG. 5C).

P-gp [4] = target: T2, P-gp (Sus scrofa, UniProt K7GMM7); test: ex vivo perfusion versus altered P-gp expression; type: in vitro ADME, porcine
T2 construct: Small intestinal tissue was isolated from intact gastrointestinal tract immediately after euthanasia; from tissue; host or cells: porcine small intestine explant, P-gp level lowered by graded siRNA doses
T2 sequence (K7GMM7 1-1248): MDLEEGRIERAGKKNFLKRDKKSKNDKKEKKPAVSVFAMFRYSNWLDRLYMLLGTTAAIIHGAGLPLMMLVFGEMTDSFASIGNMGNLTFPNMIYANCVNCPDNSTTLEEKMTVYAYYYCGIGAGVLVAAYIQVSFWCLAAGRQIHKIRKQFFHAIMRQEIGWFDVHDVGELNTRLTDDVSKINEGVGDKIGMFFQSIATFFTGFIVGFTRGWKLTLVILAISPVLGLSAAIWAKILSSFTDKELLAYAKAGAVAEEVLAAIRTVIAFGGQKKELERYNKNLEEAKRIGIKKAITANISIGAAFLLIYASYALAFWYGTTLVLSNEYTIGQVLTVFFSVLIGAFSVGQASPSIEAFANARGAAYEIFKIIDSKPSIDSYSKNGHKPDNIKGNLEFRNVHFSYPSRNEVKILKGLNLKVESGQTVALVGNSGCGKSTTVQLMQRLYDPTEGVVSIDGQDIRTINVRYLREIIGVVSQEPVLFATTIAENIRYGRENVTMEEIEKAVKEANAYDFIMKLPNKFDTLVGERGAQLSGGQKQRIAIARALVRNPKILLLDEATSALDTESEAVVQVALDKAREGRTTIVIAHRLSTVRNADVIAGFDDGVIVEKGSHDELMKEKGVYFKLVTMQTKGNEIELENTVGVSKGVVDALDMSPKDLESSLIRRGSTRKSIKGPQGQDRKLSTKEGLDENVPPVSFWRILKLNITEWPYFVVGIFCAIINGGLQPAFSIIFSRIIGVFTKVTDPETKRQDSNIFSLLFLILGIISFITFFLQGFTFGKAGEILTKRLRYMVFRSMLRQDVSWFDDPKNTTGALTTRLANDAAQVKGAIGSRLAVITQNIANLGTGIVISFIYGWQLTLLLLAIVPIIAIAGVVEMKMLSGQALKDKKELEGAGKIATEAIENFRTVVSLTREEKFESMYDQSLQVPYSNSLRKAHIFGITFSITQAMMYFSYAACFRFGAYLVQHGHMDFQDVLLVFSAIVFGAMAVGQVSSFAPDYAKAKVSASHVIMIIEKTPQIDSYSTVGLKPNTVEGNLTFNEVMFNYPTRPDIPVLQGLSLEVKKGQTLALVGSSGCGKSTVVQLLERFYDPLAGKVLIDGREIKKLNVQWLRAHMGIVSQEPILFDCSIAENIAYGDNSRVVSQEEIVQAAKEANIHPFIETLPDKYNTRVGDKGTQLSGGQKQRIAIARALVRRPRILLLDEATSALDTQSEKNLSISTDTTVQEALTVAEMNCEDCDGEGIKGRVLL
Source text: as §1

P-gp, BCRP, or MRP2 = test: in vivo pharmacokinetic study with oral transport inhibitor pre-treatment; settings: oral gavage, serum, 60 minutes; verapamil for P-gp, imatinib for BCRP, or probenecid for MRP2; p<0.05
P-gp [5] = test: siRNA dose versus transporter expression (western-blot); type: cell-based, porcine; settings: co-delivery with varying concentrations, 0 to 25 μM
Description: (§2) FIGS. 5A-5B show the level of reduction in P-gp and BCRP drug transporter expression depends on the dose of siRNA (0 to 25 μM) administered to the intestinal tissue explant.
(§3) Tissue was dissected and snap frozen in liquid nitrogen. Every 1 mg of tissue sample was homogenized in 100 μL of RIPA buffer supplied with protease inhibitor (Roche) by Berkin 24-cycle homogenizer. After centrifugation, the protein concentration from the supernatant was determined by BCA assay (Pierce) according to manufactory protocol. A total of 100 μg of protein was loaded on each lane for western-blotting. Blots were imaged with Bio-rad universal Hood Ii Molecular Imager (1312M) with Chemiluminescence method. Contrast setting was set for auto-contrast for all images.
as §1, with “Perfusion of BCRP-specific substrates increased linearly with reduced BCRP-expression (dauricine R=0.7, hymecromone sulfate R=0.81) but were not affected by altering P-gp expression (p>0.28 one-tailed Z test at maximum siPgp concentration; FIG. 5C).” left out

cytochrome P450 3A4 = cytochrome P450 3A4 (Homo sapiens, UniProt P08684); settings: cited from earlier work
Chain of cytochrome P450 3A4 (P08684 whole entry, the tested form may be a part): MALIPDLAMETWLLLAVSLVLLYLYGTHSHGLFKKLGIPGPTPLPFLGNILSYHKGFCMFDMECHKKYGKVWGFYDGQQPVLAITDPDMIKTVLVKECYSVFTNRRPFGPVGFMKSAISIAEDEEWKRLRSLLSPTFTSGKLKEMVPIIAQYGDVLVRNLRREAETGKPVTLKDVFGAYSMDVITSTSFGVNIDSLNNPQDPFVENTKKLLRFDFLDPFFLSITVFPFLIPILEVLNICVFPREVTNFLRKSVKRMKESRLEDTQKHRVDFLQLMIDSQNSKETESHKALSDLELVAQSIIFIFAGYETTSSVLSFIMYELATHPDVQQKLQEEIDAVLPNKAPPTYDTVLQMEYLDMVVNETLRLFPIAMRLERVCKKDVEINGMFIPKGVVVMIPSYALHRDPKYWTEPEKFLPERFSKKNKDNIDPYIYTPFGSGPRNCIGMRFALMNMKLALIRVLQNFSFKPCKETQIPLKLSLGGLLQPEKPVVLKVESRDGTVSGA

BCRP and MRP2 = test: ex vivo perfusion with doxycycline co-treatment
Description: Four candidate drugs that are known substrates of BCRP and MRP2 were manually selected to study whether they could potentially interact with doxycycline.
As a first-line test (FIG. 10), ex vivo perfusion experiments were conducted to test for changes in absorption when co-administering the candidates with doxycycline.

BCRP [6] = test: siRNA dose versus transporter expression (western-blot); type: cell-based, porcine; settings: co-delivery with varying concentrations, 0 to 25 μM
Description: as §2, §3
as §1, with “Perfusion of BCRP-specific substrates increased linearly with reduced BCRP-expression (dauricine R=0.7, hymecromone sulfate R=0.81) but were not affected by altering P-gp expression (p>0.28 one-tailed Z test at maximum siPgp concentration; FIG. 5C).” left out

[7] = target: T3, P-gp, BCRP, MRP2, PEPT1, and MCT1 (Sus scrofa, UniProt Q8MIB3); test: ex vivo perfusion of known substrates and non-substrates after knockdown of a single transporter; type: in vitro ADME, porcine; settings: other drugs p<0.01
T3 construct: Small intestinal tissue was isolated from intact gastrointestinal tract immediately after euthanasia; from tissue; host or cells: porcine small intestine explant, single transporter knocked down by siRNA
T3 sequence (Q8MIB3 1-656): T1 sequence (Q8MIB3 1-656)
Description: If a molecule is transported by a specific transporter, its diffusion across the tissue should be impacted by selectively down regulating that transporter. To validate that the platform accurately captures this behavior, a total of 23 known transporter-drug relationships was tested.

[8] = transporter(s) reported in previous literature for the drug

For CC(C)(C)NCC(O)COc1cccc2c1CC(O)C(O)C2 (stereo not shown) [Nadolol], the “Platform Target” value (P-gp, BCRP, and MRP2 [1]) is listed as “BCRP” and the “Literature Target” value (Pgp, BCRP, MRP2; [8]) is listed as “no target”.

In the case of CCOc1nc2cccc(C(=O)OC(C)OC(=O)OC3CCCCC3)c2n1Cc1ccc(-c2ccccc2-c2nnn[nH]2)cc1 (stereo not shown) [Candesartan cilexetil], the “Platform Target” value (P-gp, BCRP, and MRP2 [1]) is given as “no target” and the “Literature Target” value (Pgp, BCRP, MRP2; [8]) is given as “Pgp”.

In the case of CN(C)[C@@H]1C(O)=C(C(N)=O)C(=O)[C@@]2(O)C(O)=C3C(=O)c4c(O)ccc(Cl)c4[C@@](C)(O)[C@H]3C[C@@H]12 [Chlorotetracycline], the “Literature Target” value (Pgp, BCRP, MRP2) is listed as “no target” and the “Platform Target” value (P-gp, BCRP, and MRP2 [2]) is listed as “no target”.

For COc1cc2c(cc1OC)[C@@H](Cc1ccc(Oc3cc(C[C@@H]4c5cc(OC)c(OC)cc5CCN4C)ccc3O)cc1)N(C)CC2 [dauricine], the “R, perfusion increase versus reduced BCRP-expression” value (BCRP [3]; pig) was 0.7 and the “perfusion on altering P-gp expression” value (P-gp [4]) was “not affected”.

For hymecromone sulfate, the “R, perfusion increase versus reduced BCRP-expression” value (BCRP [3]; BCRP-specific substrates, linear relation, FIG. 5C) was 0.81 and the “perfusion on altering P-gp expression” value (P-gp [4]; BCRP-specific substrates, p>0.28 one-tailed Z test at maximum siPgp concentration) was “not affected”.

For C[C@H]1c2cccc(O)c2C(=O)C2=C(O)[C@]3(O)C(=O)C(C(N)=O)=C(O)[C@@H](N(C)C)[C@@H]3[C@@H](O)[C@@H]21 [Doxycycline], the “Platform Target” value (P-gp, BCRP, and MRP2 [1]) is listed as “BCRP & MRP2”, the “known substrate of transporters” value (Pgp, BCRP, MRP2) is listed as “P-gp and OAT1” and the “Literature Target” value (Pgp, BCRP, MRP2; [8]) is listed as “no target”. For the same compound, the “relative AUC (drug absorption) with versus without transport inhibitor” value (P-gp, BCRP, or MRP2) was “novel BCRP and MRP2 substrate”.

In the case of CN(C)C(=O)C(CCN1CCC(O)(c2ccc(Cl)cc2)CC1)(c1ccccc1)c1ccccc1 [Loperamide], the “Literature Target” value (Pgp, BCRP, MRP2) is listed as “no target” and the “Platform Target” value (P-gp, BCRP, and MRP2 [2]) is listed as “no target”.

With “siRNA targeting P-gp: siRNA duplex, sense SEQ ID NO: 91, antisense SEQ ID NO: 92 (sense AUGACAGUGUACGCCUAUUAUTT; antisense AUAAUAGGCGUACACUGUCAUTT; sugars from the 5' end r21 d2, backbone not given here)” the “Pearson r, expression level versus siRNA dose” value (P-gp [5]) was 0.79.

For Ergotamine D-tartrate, the “Platform Target” value (P-gp, BCRP, and MRP2 [1]) is listed as “Pgp & BCRP & MRP2” and the “Literature Target” value (Pgp, BCRP, MRP2; [8]) is listed as “Pgp”.

In the case of CNC(=C[N+](=O)[O-])NCCSCc1ccc(CN(C)C)o1 [Ranitidine], the “Platform Target” value (P-gp, BCRP, and MRP2 [1]) is listed as “Pgp & BCRP & MRP2” and the “Literature Target” value (Pgp, BCRP, MRP2; [8]) is listed as “Pgp & BCRP”.

For NC(=O)N1c2ccccc2C=Cc2ccccc21 [Carbamazepine], the “Platform Target” value (P-gp, BCRP, and MRP2 [1]) is given as “Pgp & BCRP”, the “Literature Target” value (Pgp, BCRP, MRP2; [8]) is given as “Pgp” and the “relative AUC (drug absorption) with versus without transport inhibitor” value (P-gp, BCRP, or MRP2) is given as “did not show the expected effect”.

For CC[C@@H](C(N)=O)N1CCCC1=O [levetiracetam], the “metabolism through cytochrome P450 3A4” value (cytochrome P450 3A4) is listed as “not cytochrome substrates”, the “known substrate of transporters” value (Pgp, BCRP, MRP2) is listed as “BCRP and MRP2” and the “perfusion / absorption upon co-treatment with doxycycline” value (BCRP and MRP2) is listed as “increased absorption”.

With “siRNA targeting BCRP: siRNA duplex, sense SEQ ID NO: 95, antisense SEQ ID NO: 96 (sense ACUUCUUCCUGGACGUCAUUATT; antisense UAAUGACGUCCAGGAAGAAGUTT; chemistry not given here)” the “Pearson r, expression level versus siRNA dose” value (BCRP [6]) was 0.96.

In the case of CC(=O)CC(c1ccccc1)c1c(O)c2ccccc2oc1=O (stereo not shown) [Warfarin], the “metabolism through cytochrome P450 3A4” value (cytochrome P450 3A4) is given as “metabolized through cytochrome P450 3A4”, the “Platform Target” value (P-gp, BCRP, and MRP2 [1]) is given as “Pgp & BCRP” and the “known substrate of transporters” value (Pgp, BCRP, MRP2) is given as “BCRP and MRP2”. For the same compound, the “Literature Target” value (Pgp, BCRP, MRP2; [8]) was “Pgp & BCRP”.

For CC(C)c1nc(N(C)S(C)(=O)=O)nc(-c2ccc(F)cc2)c1/C=C/[C@@H](O)C[C@@H](O)CC(=O)O [Rosuvastatin], the “p, two-tailed T test, of perfusion increase after knockdown” value [7] was 2%.

In the case of CC(C)(C)NCC(O)c1cc(O)cc(O)c1 (stereo not shown) [Terbutaline], the “Platform Target” value (P-gp, BCRP, and MRP2 [1]) is listed as “no target” and the “Literature Target” value (Pgp, BCRP, MRP2; [8]) is listed as “no target”.

In the case of O=c1ccc2ccccc2o1 [Coumarin], the “Platform Target” value (P-gp, BCRP, and MRP2 [1]) is given as “Pgp” and the “Literature Target” value (Pgp, BCRP, MRP2; [8]) is given as “Pgp”.

For C=CC[C@@H]1/C=C(\C)C[C@H](C)C[C@H](OC)[C@H]2O[C@@](O)(C(=O)C(=O)N3CCCC[C@H]3C(=O)O[C@H](/C(C)=C/[C@@H]3CC[C@@H](O)[C@H](OC)C3)[C@H](C)[C@@H](O)CC1=O)[C@H](C)C[C@@H]2OC [tacrolimus], the “metabolism through cytochrome P450 3A4” value (cytochrome P450 3A4) is given as “metabolized through cytochrome P450 3A4”, the “known substrate of transporters” value (Pgp, BCRP, MRP2) is given as “BCRP and MRP2” and the “perfusion / absorption upon co-treatment with doxycycline” value (BCRP and MRP2; ex vivo, LC-MS/MS, p<0.05) is given as “increased absorption”.

In the case of NCCC(O)(P(=O)(O)O)P(=O)(O)O [Pamidronate disodium salt hydrate], the “Platform Target” value (P-gp, BCRP, and MRP2 [1]) is listed as “Pgp” and the “Literature Target” value (Pgp, BCRP, MRP2; [8]) is listed as “no target”.

For C[C@H]1O[C@@H](O[C@H]2[C@@H](O)C[C@H](O[C@H]3[C@@H](O)C[C@H](O[C@H]4CC[C@@]5(C)[C@H](CC[C@@H]6[C@@H]5C[C@@H](O)[C@]5(C)[C@@H](C7=CC(=O)OC7)CC[C@]65O)C4)O[C@@H]3C)O[C@@H]2C)C[C@H](O)[C@@H]1O [digoxin], the “metabolism through cytochrome P450 3A4” value (cytochrome P450 3A4) is given as “not cytochrome substrates”, the “known substrate of transporters” value (Pgp, BCRP, MRP2) is given as “BCRP and MRP2” and the “perfusion / absorption upon co-treatment with doxycycline” value (BCRP and MRP2) is given as “increased absorption”.

For CN1C(C(=O)Nc2ccccn2)=C(O)c2ccccc2S1(=O)=O [Piroxicam], the “Platform Target” value (P-gp, BCRP, and MRP2 [1]) is given as “no target” and the “Literature Target” value (Pgp, BCRP, MRP2; [8]) is given as “no target”.

For N[C@@H](Cc1ccccc1)C(=O)O [L-phenylalanine], the “Platform Target” value (P-gp, BCRP, and MRP2 [1]) is given as “no target” and the “Literature Target” value (Pgp, BCRP, MRP2; [8]) is given as “no target”.
